Data reported in PMC10700139 (Nature, 2023).
Values joined by “and” are separate entries in the source; they are usually repeats but may differ in a detail not shown here. Identical values can stand only once.

Assays:
[1] = tested on: several insect species; parameters: method as in PMID 11804518; conditions: cited from earlier work
[2] = target: T1, PtCAL-1a/PtCAL-2a (Phlegmariurus tetrastichus, UniProt P0DXL1+P0DXL3); assay: In vitro reactions with apoplastic PtCAL-1a/PtCAL-2a (formation of 9, decarboxylation of 3, Zn chelator); format: biochemical
T1 construct: N-terminal signal peptide[58], which would be cleaved during processing and trafficking of these proteins; made in house; host or cells: Nicotiana benthamiana leaves (Agrobacterium transient co-expression, pEAQ-HT), concentrated apoplast extract
T1 sequence (P0DXL1 22-280): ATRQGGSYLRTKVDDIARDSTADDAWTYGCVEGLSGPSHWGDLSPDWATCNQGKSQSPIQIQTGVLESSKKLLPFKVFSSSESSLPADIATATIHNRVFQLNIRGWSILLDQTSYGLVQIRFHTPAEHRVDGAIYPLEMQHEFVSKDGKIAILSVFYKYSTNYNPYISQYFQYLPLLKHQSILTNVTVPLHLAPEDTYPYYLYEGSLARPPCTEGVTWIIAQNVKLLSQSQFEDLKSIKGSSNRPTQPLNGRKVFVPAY
T1 sequence (P0DXL3 24-284): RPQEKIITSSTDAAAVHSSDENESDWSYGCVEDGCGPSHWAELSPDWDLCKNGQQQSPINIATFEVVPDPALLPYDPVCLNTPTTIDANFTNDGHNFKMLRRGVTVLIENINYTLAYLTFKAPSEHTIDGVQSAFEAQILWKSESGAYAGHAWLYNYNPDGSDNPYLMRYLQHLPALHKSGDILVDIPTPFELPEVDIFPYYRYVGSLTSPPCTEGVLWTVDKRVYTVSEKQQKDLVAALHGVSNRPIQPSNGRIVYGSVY
Excerpt: The three CAL proteins identified in this study have predicted N-terminal signal peptides, which were identified using the TargetP-2.0 server (https://services.healthtech.dtu.dk/service.php?TargetP-2.0)[58]. […] To assess this possibility, CAL genes with or without C-terminal 6xHis tags were transiently expressed in N. benthamiana, as described above. Each CAL gene was expressed individually; also, PtCAL-1a and PtCAL-2a were transiently co-expressed in the same leaf because we had found them to cofunction in Lycopodium alkaloid biosynthesis. At 4 days after Agrobacterium infiltration, apoplast protein extracts were isolated using the infiltration–centrifugation method, much as previously described. Two leaves per reaction were excised from the plant and submerged in ice-cold apoplast extraction buffer (100 mM MES, 300 mM NaCl, pH 5.5) in an open-capped 50 ml Falcon tube and these tubes were placed in a plastic vacuum chamber attached to a Welch Model 2025 vacuum pump. The chamber was brought down to full vacuum and after 2 min at this pressure, the vacuum was slowly released to allow for buffer to infiltrate the leaf apoplastic space. Buffer-infiltrated leaves were carefully removed from the Falcon tubes, blotted dry with paper towels and were then rolled into Parafilm and placed in a plungerless 5 ml plastic syringe. The syringe was placed in a 15 ml Falcon tube and this was then centrifuged at 1,000g and 4 °C for 10 min to collect apoplast extract. The resulting extract was centrifuged at 10,000g and 4 °C for 15 min to pellet any larger cellular debris and the supernatant was concentrated using an Amicon Ultra-4 Centrifugal Filter Unit (10 kDA MWCO, MilliporeSigma UFC501024). Protein concentrations were measured using the BIO-RAD Protein Assay or Bradford assay (Abcam 119216) and adjusted with apoplast extraction buffer to a final concentration between 0.5 and 1.5 mg ml^−1. Aliquots of the extracts were snap frozen in liquid nitrogen and stored at −80 °C.
Reactions with CAL-enriched apoplast were routinely performed in low-pH potassium phosphate buffer (50 mM potassium phosphate, 100 mM NaCl, pH 5.9) at a volume of 20 µl. For PtCAL-1a/PtCAL-2a, these reactions contained approximately 1.4 µg of apoplast protein for each CAL (final concentration of 0.07 µg µl^−1). Control reactions used apoplast from leaves expressing only one CAL or with apoplast generated from GFP-expression N. benthamiana leaves. The requisite substrates for this reaction were generated through the activities of in vitro PtPIKS-1 and PtCYP782C1 enzyme reactions. […]. To generate 3 and 4 as potential substrates, 1 µg of previously purified PtPIKS-1 enzyme[23] and 150 µM 1 and 300 µM malonyl-CoA were added directly to the CAL reaction mixtures. After thorough mixing, reactions were incubated at room temperature. An alternative route for producing 3 and 4 independently of thioester intermediates was achieved by mixing stocks of 1 (10 mM in water) and 2 (10 mM in water; always prepared fresh to minimize compound decomposition) in equal proportion, followed by incubation at room temp for 1–2 h, as these two substrates can non-enzymatically condense to yield 3 (which can spontaneously decarboxylate to produce 4). A 2 µl aliquot of this mixture was then added as a component of the PtCAL-1a/PtCAL-2a enzyme reaction (20 µl total reaction volume) in addition to the PtCYP782C1 microsomal reaction mixture. After predesignated incubation times, reactions were quenched by diluting tenfold into ACN with 0.1% formic acid.
To evaluate the potential decarboxylation of β-keto acid substrates by PtCAL-1/PtCAL-2 and PtCAL-3, only 3 or 2, respectively, were added as substrate. PtCAL-1/PtCAL-2 reactions were quenched by diluting aliquots tenfold into ACN with 0.1% formic acid and were subsequently analysed through HILIC LC–MS. PtCAL-3 reactions were quenched by mixing aliquots with an equal volume of water with 0.2% formic acid and were then analysed through C18 LC–MS. […]

[3] = Stability of PtCYP782C1 products in leaf extract incubated at room temperature; format: physicochemical; conditions: samples incubated at room temperature for 1 h
Description: The production of (2S, 4S)-6 and (2S, 4R)-6 was consistent with our hypothesis for elimination-mediated formation of the proposed diene (8). Because formation of 8 would require oxidation of the O-acetylated substrate(s), we next screened CYP and 2OGD family enzymes found in cluster131. […] This coincided with the presence of two new compounds: one that corresponded to a single oxidation (desaturation) of the O-acetylated substrate (7, [M + H]^+ = m/z 184.1332, retention time 1.86 min), as well as another which shared the same exact mass as 8 ([M + H]^+ = m/z 124.1121, retention time 1.93 min). […] Although this limited our ability to access authentic standards, tandem mass spectrometry (MS/MS or MS^2) analysis supported the proposed structures of 7 and 8 and ultraviolet (UV) analysis of 8 corroborated the presence of the predicted α,β-unsaturated imine in this molecule[34] (Extended Data Fig. 2c,d). […]
Extended Data Fig. 2 Functional characterization of PtCYP782C1. a) Transient expression of PtCYP782C1 with a biosynthetic module for the production of 6 diastereomers (PtLDC, PtCAO, PtPIKS, PtSDR-1 or PtSDR-2 and PtACT-1) in N. benthamiana. […] Product abundance is calculated as the integration of the peak generated in the EIC for each mass ion. g) Relative activity of PtCYP782C1 microsomes at varying pH, as determined via production of both 7 and 8. […]

For C/C=C1\[C@H]2C=C(C)C[C@]1(N)c1ccc(=O)[nH]c1C2 [compound 17, huperzine A], the antifeedant activity [1] is listed as “antifeedant activity”.

For O=C(O)CC(=O)CC1CCCCN1 (centres unmarked) [compound 3, 4-(2-piperidyl)acetoacetic acid], the “ratio of 4 ion abundance (m/z 142.1226) to that of 3 (m/z 186.1125)” value (from here on “ratio of 4 ion abundance”) ([2]; PtCAL-1a/PtCAL-2a +3 (ED 4h)) was 31.4694 and 27.1428 and 38.6295, the “ratio of 4 ion abundance” value ([2]; PtCAL-1a/PtCAL-2a +3, 0.25 hrs (ED 4g)) was 66.6374 and 57.9149 and 54.0594 and the “ratio of 4 ion abundance” value ([2]; PtCAL-1a/PtCAL-2a +3, 0.5 hrs (ED 4g)) was 59.9271 and 67.8727 and 55.7877. For the same compound, the “ratio of 4 ion abundance” value ([2]; PtCAL-1a/PtCAL-2a +3, 1 hrs (ED 4g)) was 70.6508 and 59.4497 and 51.4084 and the “ratio of 4 ion abundance” value ([2]; PtCAL-1a/PtCAL-2a +3, 2 hrs (ED 4g)) was 57.1082 and 53.747 and 49.4186.

In the case of CC(=O)OC(C)CC1=NCCCC1 (centres unmarked) [compound 7], the “stability of compound in sample” value [3] is reported as “almost entirely lost”.

In the case of C/C=C/C1=NCCCC1 [compound 8], the “stability of compound in sample” value [3] is reported as “almost entirely lost”.
